Source: patent US10568949B2, “Method of eliciting an anti-tumor immune response with controlled delivery of TLR agonists in porous polymerlc devices” (President and Fellows of Harvard College, priority 2008, dated 2020)

How the values were obtained:
dendritic cells [1] = assay: Example 7: DC recruitment and activation in matrices with GM-CSF and TLR agonists (FACS, day 7); type: in vivo, C57BL/6J mice; details: with GM-CSF
Source text: The cell suspensions were then poured through a 40 μm cell strainer to isolate cells from scaffold particles and the cells were pelleted and washed with cold PBS and counted using a Z2 coulter counter (Beckman Coulter). To assess, DC infiltration and activation, subsets of the total cell population isolated from PLG matrices were then stained with primary antibodies (BD Pharmingen, San Diego, Calif.) conjugated to fluorescent markers to allow for analysis by flow cytometry. APC-conjugated CD11c (dendritic cell marker), FITC-conjugated MHCII and PE-conjugated CD86 (B7, costimulatory molecule) stains were conducted for DC recruitment and activation analysis. To further delineate the presence of specific DC subsets, cells were also stained with APC-conjugated CD11c and PE-conjugated PDCA-1 (plasmacytoid DC marker) or APC-conjugated CD11c and PE-conjugated CD8 (CD8 DCs). To assess T-cell infiltration PE-Cy7 conjugated CD3 stains were performed in conjunction with APC-conjugated CD8a (CD8 T cells), and PE-conjugated FoxP3 (Treg) and analyzed with flow cytometry. Cells were gated according to single positive FITC, APC and PE stainings and using isotype controls. The percentage of cells staining positive for each surface antigen was recorded. To examine the ability of PLG matrices to recruit and activate dendritic cells in vivo, matrices delivering GM-CSF in combination with danger signals were implanted subcutaneously into the backs of C57BL/6J mice. The magnitude of DC infiltration and activation into the matrices was determined by FACS analysis of cell populations isolated from the polymeric material after 7 days.

B16-F10 melanoma cells [2] = assay: Example 7: therapeutic vaccination of established B16-F10 melanoma
Experimental: To assess PLG vaccine efficacy in the therapeutic setting, C57/BL6J mice were challenged with a subcutaneous injection of 5×10^5 B16-F10 melanoma cells (ATCC, Manassas, N.J.) in the back of the neck. At day 9 after tumor challenge PLG vaccines loaded with 3000 ng GM-CSF in combination with 100 μg of CpG-ODN, MPLA or P(I:C), and tumor lysates were implanted subcutaneously into the lower left flank of C57BL/6J mice. A subset of mice were vaccinated again 10 days after the initial vaccination (Days 19 and 23).
Mice challenged with 5×10^5B16-F10 melanoma cells were subsequently vaccinated at days 9 and 19, after tumors were established.

IL-12p70 = assay: Example 7: cytokine concentrations at implant site; type: in vivo, C57BL/6J mice; details: with GM-CSF
Experimental: To determine in vivo IL-12p70 concentration at the matrix implant site, adjacent tissue was excised and digested with tissue protein extraction reagent. After centrifugation, the concentrations of IL-12, in the supernatant were then analyzed with ELISA (R&D systems), according to the manufacturer's instructions.

B16-F10 melanoma cells [3] = assay: Example 7: prophylactic vaccination, B16-F10 melanoma; type: in vivo, C57BL/6J mice; set-up: concentration or dose not given beside the values; details: B16-F10 tumor lysates and GM-CSF, with or without TLR agonist; challenge at day 14
B16-F10 tumors = assay: Example 7: tumor infiltrating leukocyte (TIL) characterization; set-up: species or system C57BL/6J mice; details: mouse, in vivo
Experimental: On the indicated days, B16-F10 tumors were removed from mice, and digested in 1 mg/mL collagenase II (250 U/ml) (Worthington, Lakewood, N.J.) and 0.1 mg/mL DNase for 1 hour at 37° C. Dissociated cells were filtered through a 40-μm filter, and directly stained with antibodies for phenotype characterization by fluorescence-activated cell sorting (FACS) analysis. APC-anti-CD8 and PE-Cy7-anti CD3 were used to identify T cells isolated from the B16F10 tumors. These TILs were also costained with FITC-anti-IFNγ, and PE-anti-CD107a. All antibodies were obtained from eBioscience, San Diego, Calif.

[4] = In vitro release / retention of GM-CSF, cytokines and TLR agonists from PLG scaffolds; type: physicochemical; details: for incorporated cytokine released from scaffolds: by day 4, in vitro; for daily release of protein: over the next 23 days after day 4
Experimental: To determine the incorporation efficiency of CpG-ODN incorporation, PLG scaffolds were prepared with 50 ug of CpG-ODN and digested in 1 ml of chloroform (Sigma Aldrich, and washed with 2 mls of aqueous buffer. The aqueous phase was isolated and the amount of CpG-ODN incorporated was determined by absorbance readings (260/280 and 260/230 ratios calculated at 0.2 mm pathlength) using a Nanodrop instrument, ND1000 (Nanodrop technologies, Wilmington, Del.). Similarly, to determine CpG-ODN release kinetics CpG-ODN loaded scaffolds were placed in 1 ml of Phosphate Buffer Solution (PBS) in an incubator (37° C.). At various timepoints, the PBS release media was collected and replaced with fresh media. The total amount of CpG-ODN incorporated into PLG scaffolds and released into PBS over time was analyzed and recorded.

IL-12p70 and IFN-γ = details: tumor lysate and CpG-ODN
Experimental: To determine the in vivo IL-12p70 and IFN-γ concentration at the matrix implant site, adjacent tissue was excised and digested with tissue protein extraction reagent at Day 10 after implantation (Pierce). After centrifugation, the concentrations of IL-12 and IFN-γ, in the supernatant were then analyzed with ELISA (R&D systems), according to the manufacturer's instructions. To determine the generation of TRP-2-specific cytotoxic T lymphocytes, single cell suspensions were prepared at Day 10 from the spleens of mice immunized with PLG vaccines. These cells were initially stained with PE-H-2Kb/TRP2 pentamers (Sigma Aldrich), and subsequently stained with FITC-anti-CD8 and PE-CY7 CD3 mAb (mAb (BD Pharmingen, San Diego) before being analyzed using flow cytometry.

dendritic cells [5] = assay: Example 8: DC recruitment and activation in cytokine loaded PLG matrices (FACS, day 7); type: in vivo, C57BL/6J mice; details: for DC recruitment relative to blank PLG matrices: day 7
Experimental: To analyze DC recruitment by FACS analysis, scaffolds were excised and the ingrown tissue was digested into single cell suspensions using a collagenase solution (Worthingtion, 250 U/ml) that was agitated at 37° C. for 45 minutes. The cell suspensions were then poured through a 40 μm cell strainer to isolate cells from scaffold particles and the cells were pelleted and washed with cold PBS and counted using a Z2 coulter counter (Beckman Coulter). To assess, DC infiltration and activation, subsets of the total cell population isolated from PLG matrices were then stained with primary antibodies (BD Pharmingen, San Diego, Calif.) conjugated to fluorescent markers to allow for analysis by flow cytometry. APC-conjugated CD11c (dendritic cell marker), FITC-conjugated MHCII and PE-conjugated CD86 (B7, costimulatory molecule) stains were conducted for DC recruitment and activation analysis. To delineate the presence of the plasmacytoid DC subset, cells were also stained with APC-conjugated CD11c and PE-conjugated PDCA-1 (plasmacytoid DC marker). Cells were gated according to single positive FITC, APC and PE stainings using isotype controls. The percentage of cells staining positive for each surface antigen was recorded.

[6] = system: bone marrow derived dendritic cells; assay: Example 8: transwell chemotaxis and chemokinesis of bone marrow derived DCs; type: cell-based, C57BL/6 mice; details: 12 h; for DC chemotaxis, migration higher than control condition: 500 ng/ml in bottom wells; for DC chemokinesis, increase in number of migrated cells: homogenous cytokine 500 ng/ml
Experimental: Primary bone-marrow-derived dendritic cells (BMDCs) were flushed from the femurs of C57BL/6 mice and cultured in 100-mm bacteriological petri dishes (Falcon number 1029/Becton Dickinson). Cell culture medium RPMI-1640 (R10) (Sigma) was supplemented with 1% Penicillin-Streptomycin (Invitrogen), 2 mM 1-Glutamine (Invitrogen), 50 μM 2-mercaptoethanol (Sigma) and 10% heat-inactivated fetal bovine serum (FBS, Invitrogen). At day 0, bone marrow leukocytes were seeded at 2×10^6 cells per 100-mm dish in 10 ml R10 medium containing 20 ng/nil granulocyte-macrophage colony-stimulating factor (GM-CSF) (Peprotech). At day 3, another 10 ml R10 medium containing 20 ng/mL GM-CSF was added. to the plates. At days 6 and 8, half of the culture supernatant was collected and centrifuged, the cell pellet was resuspended in 10 ml fresh R10 containing 20 ng/mL GM-CSF, and placed back into the original plate. The non-adherent cell population in the culture supernatant was used between days 8 and 12 for all the experiments.
Transwell migration studies were performed by plating bone marrow derived dendritic cells in the top well of 6.5 mm transwell dishes (Costar, Cambridge, Mass.) with a pore size of 5 μm. The chemotactic effects of GM-CSF, FL (Flt3), and CCL20 on the migration of BMDCs was assessed by placing 500 ng/ml of recombinant murine GM-CSF, FL or CCL20 (Peprotech, Rocky Hill, N.J.) in the bottom wells and 3×10^5 DCs in the top wells. For chemokinesis studies, the concentration of cytokine in each compartment was equal at 500 ng/ml and 3×10^5 DCs were added to the top wells. The number of cells that migrated from the top well to the bottom well through the porous membrane was counted at the end of 12 h to quantify migration. Cells that had migrated to the bottom well were collected by treatment with 0.25% trypsin-0.03% ethylenediaminetetraacetic acid (EDTA, Invitrogen) and counted with a Z2 coulter counter (Beckman Coulter, Inc).

B16-F10 melanoma cells [7] = assay: Example 8: therapeutic vaccination, B16-F10 melanoma; type: in vivo, C57BL/6J mice; details: vaccinated three days after tumor challenge
Experimental: PLG scaffolds containing B16-F10 melanoma tumor lysates, 100 μg CpG-ODN in combination with 3 μg GM-CSF, Flt3L or CCL20 were implanted subcutaneously into the lower left flank of C57BL/6J mice to act as cancer vaccines. To assess PLG vaccine efficacy in the therapeutic setting, C57/BL6J mice were challenged with a subcutaneous injection of 5×10^5 B16-F10 melanoma cells (ATCC, Manassas, N.J.) in the back of the neck, and 3 days after tumor challenge PLG vaccines were implanted subcutaneously into the lower left flank. Animals were monitored for the onset of tumor growth (approximately 1 mm^3) and sacrificed for humane reasons when tumors grew to 20-25 mm (longest diameter).

[8] = system: TRP-2-specific cytotoxic T lymphocytes; assay: Example 8: TRP-2-specific cytotoxic T lymphocytes in spleens (Day 10); set-up: species or system C57BL/6J mice; details: mouse, in vivo

Molecule | CD8(+) DCs at implant site, higher than controls (dendritic cells [1]) | CD11c(+) cells positive for MHCII(+) and CD86(+), of total cells recruited (dendritic cells [1]) [%] | enhancement of total number of recruited DCs compared to GM-CSF delivery alone (dendritic cells [1]) [fold] | increase in total number of activated DCs relative to control matrices (dendritic cells [1]) | complete tumor regression, fraction of vaccinated animals (B16-F10 melanoma cells [2]; mouse, in vivo) | effect on IFN-α concentration at vaccine site (IL-12p70) | survival rate (B16-F10 melanoma cells [3]) [%] | increase in IFNγ(+), CD107a(+) TILs in comparison to controls (B16-F10 tumors) [fold] | incorporated cytokine released from scaffolds [4] [%] | daily release of protein [4] | increase in local concentration of IFN-γ over control scaffolds (IL-12p70 and IFN-γ) | increase in local concentration of IL-12 over control scaffolds (IL-12p70 and IFN-γ) [fold] | DC recruitment relative to blank PLG matrices (dendritic cells [5]) [fold] | resident CD11c(+)PDCA-1(+) pDCs (dendritic cells [5]; in combination with CpG-ODN) | DC chemotaxis, migration higher than control condition [6] | DC chemokinesis, increase in number of migrated cells [6] | long-term survival rate (B16-F10 melanoma cells [7]) [%] | further results
monophosphoryl lipid A [MPLA] | approximately 5 fold | ~19 | 1.9 | approximately 15 fold | did not cause tumors to completely regress | no effect | 80 | ~1.4 |  |  |  |  |  |  |  |  |  | increase in mean survival time over controls (B16-F10 melanoma cells [2]; vaccinated at days 9 and 19): ~1.5 fold; IL-12 concentration lower than CpG-ODN and P(I:C) (IL-12p70): 2 fold; higher levels of TNF-α (IL-12p70): 4 fold
polyinosinic:polycytidylic acid [P(I:C)] | approximately 5 fold | ~28 | 2.2 | ~20 fold | over a third | elevated levels | 70 | ~3.1 |  |  |  |  |  |  |  |  |  | size of tumors that completely regressed / were eradicated (B16-F10 melanoma cells [2]; mouse, in vivo): 35 mm^2; long term survival of mice (B16-F10 melanoma cells [2]; vaccinated at days 9 and 19): 33%
CCL20 (protein, UniProt O89093 28-97, looked up, recombinant murine cytokine (Peprotech) released from PLG matrices) C-C motif chemokine 20: ASNYDCCLSYIQTPLPSRAIVGFTRQMADEACDINAIIFHTKKRKSVCADPKQNWVKRAVNLLSLRVKKM |  |  |  |  |  |  |  |  | ~26 | approximately 0.9% | no effect | 2 | 2.5 | approximately 110,000 | no effect | no effect | 62 | 
Fms-related tyrosine kinase 3 ligand (protein, UniProt P49772 27-232, looked up, recombinant murine cytokine (Peprotech) released from PLG matrices) Fms-related tyrosine kinase 3 …: GTPDCYFSHSPISSNFKVKFRELTDHLLKDYPVTVAVNLQDEKHCKALWSLFLAQRWIEQLKTVAGSKMQTLLEDVNTEIHFVTSCTFQPLPECLRFVQTNISHLLKDTCTQLLALKPCIGKACQNFSRCLEVQCQPDSSTLLPPRSPIALEATELPEPRPRQLLLLLLLLLPLTLVLLAAAWGLRWQRARRRGELHPGVPLPSHP |  |  |  |  |  |  |  |  | ~36 | approximately 0.9% | 13 fold | 8 | 2.5 | over 160,000 | no effect | no effect | 75 | Trp2 specific CTLs in spleens, higher than control vaccines [8]: approximately 5 fold; pDCs of total cells resident in scaffolds (dendritic cells [5]; in combination with CpG-ODN): approximately 22%
